Publication PMC2810227, “3-O-Methylfunicone, a Selective Inhibitor of Mammalian Y-Family DNA Polymerases from an Australian Sea Salt Fungal Strain” (Marine Drugs, 2009)

What was measured:
bovine DNase I = target: T1, bovine DNase I (Bos taurus, UniProt P00639); assay: DNase I assay; format: biochemical; details: 100 μM
T1 construct: Calf thymus TdT and bovine pancreas DNase I were obtained from Stratagene Cloning Systems; purchased Stratagene Cloning Systems (La Jolla, CA, USA); host or cells: bovine pancreas (tissue)
Description: Pol α was purified from calf thymus by immuno-affinity column chromatography, as described by Tamai et al.. Recombinant rat pol β was purified from E. coli JMpβ5, as described by Date et al.. The human pol γ catalytic gene was cloned into pFastBac. Histidine-tagged enzyme was expressed using the BAC-TO-BAC HT Baculovirus Expression System according to the supplier’s manual (Life Technologies, MD, USA) and purified using ProBoundresin (Invitrogen Japan, Tokyo, Japan). Human pols δ and ɛ were purified by nuclear fractionation of human peripheral blood cancer cells (Molt-4) using the second subunit of pols δ and ɛ-conjugated affinity column chromatography, respectively. A truncated form of human pol η (residues 1–511) tagged with His6 at its C-terminal was expressed in E. coli cells and purified as described by Kusumoto et al.. […]
The activities of calf primase of pol α, human telomerase, T7 RNA polymerase, mouse IMP dehydrogenase, human DNA topoisomerases I and II, T4 polynucleotide kinase and bovine DNase I were measured in standard assays according to the manufacturer’s specifications, as described by Tamiya-Koizumi et al., Oda et al., Nakayama et al., Mizushina et al., Ishimaru et al., Soltis et al. and Lu et al., respectively.

[1] = system: HeLa (cervix carcinoma cells); assay: Cancer cell growth, MTT assay, HeLa; format: cell-based, human; details: 24 h
Description: Figure 5. (A) Human cancer cell growth inhibition dose-response curves of 3-O-methyl-funicone (1). Various concentrations (0 to 150 μM) of compound 1 were incubated with human colon carcinoma (HCT116) cells (circle) and human cervix carcinoma (HeLa) cells (square) for 24 h. Rate of cell growth was determined by MTT assay as described in the Experimental section. Data are shown as the means ± SEM of five independent experiments. (B) Clonogenic survival of UV-treated HeLa cells by compound 1. Various concentrations (0 to 100 μM) of compound 1 were incubated with 10 J/m^2 UV-treated (closed circle) or untreated (open circle) HeLa cells. After 7 days, the number of colonies in each treatment group was counted. Values are the means ± SEM of two independent experiments.
Human colon carcinoma cell line, HCT116, was a kind gift from Dr. Bert Vogelstein (Johns Hopkins University, Baltimore, […], USA). Human cervix carcinoma cell line, HeLa, was obtained from Health Science Research Resources Bank (Osaka, Japan). The cells were maintained in McCoy’s 5A medium supplemented with 10% FBS, sodium bicarbonate (2 g/L) and streptomycin (100 μg/mL). The cells were cultured at 37 °C in standard medium in a humidified atmosphere of 5% CO2-95% air. […] After incubation for 24 h, the survival rate was determined by MTT (3-(4,5-dimethylthiazol-2-yl)-2,5-diphenyl tetrazolium bromide) assay.

T1 sequence (P00639 23-282): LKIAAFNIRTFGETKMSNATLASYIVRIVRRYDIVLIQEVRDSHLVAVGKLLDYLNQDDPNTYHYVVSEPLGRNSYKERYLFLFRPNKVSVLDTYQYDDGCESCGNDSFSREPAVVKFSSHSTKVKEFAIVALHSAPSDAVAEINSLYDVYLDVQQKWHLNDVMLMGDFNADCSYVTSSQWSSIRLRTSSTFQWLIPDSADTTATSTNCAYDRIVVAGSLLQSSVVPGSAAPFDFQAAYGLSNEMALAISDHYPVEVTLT

## C/C=C/c1occ(C(=O)c2c(OC)cc(OC)cc2C(=O)OC)c(=O)c1OC [compound 1, 3-O-methylfunicone]
Bovine DNase I
  effect on bovine DNase I activity: did not influence
[1]
  LD50, cell growth: 63.3 µM
